Data published in US20130137767A1, “Methods and Compositions for Treating Arthritis with Docosahexaenoic Acid” (DSM IP ASSETS B.V., priority 2010, published 2013).

Experiments:
Type in all cases: in vivo, Male DBA/1O1aHsd mice
[1] = CIA-EE (Example 1): serum phospholipid fatty acid levels by FAME analysis
Procedure: (§1) The appropriate ethyl esters were blended into the base diet to provide approximately 2500 and 5000 mg/kg polyunsaturated fatty acid (PUFA) per day. The human equivalent doses (HED) were approximately 12 g/day and 22 g/day, respectively. The 2500 mg/kg EE diets contained the following fat blend: 1 part flax, 12 parts HCOC and 23 parts HO-SAFF. The 5000 mg/kg EE diets contained a fat blend consisting of: 1 part flax, 5 parts HCOC and 20 parts HO-SAFF. All study diets provided a total of 7% fat. Animals were fed study diets for approximately 30 days prior to the first collagen injection at day 0 and remained on the diets until study termination (day 45). Animals in the No Disease control and Dexamethasone groups were fed the diet containing OA-EE. Following a second collagen injection on day 21, arthritis severity was scored daily. Blood samples were collected at day 21 and day 45. Joints, 6 per an animal, were collected for histology and pathology on day 45.
Serum phospholipid fatty acid levels were determined by FAME analysis (FIG. 5). Treatment with DHA-EE elevated serum DHA levels 3-4 fold, as compared the OA-EE (placebo) control, whereas DPAn6-EE elevated serum DPAn6 20-35 fold. Serum EPA levels were elevated when dosed with the DHA/EPA-EE blend 8-15 fold and 4-7 fold when dosed with DHA-EE, as compared to the OA-EE (placebo) control. […]

[2] = CIA EE vs. TG (Example 2): serum phospholipid fatty acid levels by FAME analysis
Procedure: Male DBA/1O1aHsd mice were enrolled, quarantined, and feed study diets following the protocols described in Example 1 (CIA-EE Study). EE and TG oils were blended into the base diet to provide 2500 mg/kg PUFA per day (HED approximately 12 g/day). A single dose of PUFA per day (HED approximately 5 g/day). The 1000 mg/kg DHA-EE dose was equivalent to the amount of DHA administered in the DHA/EPA-EE blend. The fat blend the 2500 mg/kg EE diets consisted of approximately: 1 part flax, 12 parts HCOC and 23 parts HO-SAFF; 1000 mg/kg EE diet: 1 part flax, 12 parts HCOC and 32 parts HO-SAFF; 2500 mg/kg DHASCO® oil diet: 1 part flax, 8 parts HCOC, 17 parts HO-SAFF and 15 parts soybean oil; 2500 mg/kg DHA-S oil diet: 1 part flax, 5 parts HCOC, 16 parts HO-SAFF and 6 parts soybean oil. 2500 mg/kg DHA/EPA (Nordic Naturals fish oil) diet: 1 part flax, 21 parts HCOC, 18 parts HO-SAFF and 13 parts soybean oil. The monounsaturate control animals received a fat blend of 1 part flax, 7 parts HCOC and 25 parts HO-SAFF. All study diets provided a total of 7% fat. Animals in the No Disease control and Dexamethasone groups were fed the diet containing OA-EE. Mice received collagen injections on day 0 and day 21, as described previously. Blood samples were collected at day 21 and day 45. At day 45, joints were collected for histology and pathology.
Serum phospholipid fatty acid levels were determined by FAME analysis (FIG. 11). Treatment with DHASCO® or DHA-S oil elevated serum DHA levels 3-4 fold (p<0.001), as compared to the monounsaturated (placebo) control. DHA-EE treatment elevated DHA levels 3-5 fold (p<0.001), as compared to the OA-EE (placebo) control. DPAn6-TG and EE elevated DPAn6 levels 3-4 fold (p<0.001), as compared to the monounsaturated or OA-EE (placebo) control. Serum EPA levels were elevated approximately 30 fold (p<0.001) when fish oil or DHA/EPA-EE was administered, as compared to the monounsaturated or OA-EE (placebo) control. Serum EPA levels were also elevated by treatment with DHASCO® (p<0.001), DHA-S (p<0.05), or with DHA-EE (p<0.001), as compared to the monounsaturated or OA-EE (placebo) control. […] Treatment with either DHASCO® or DHA-EE (2500 mg/kg) reduced ARA levels by approximately 90% (p<0.001), as compared to the monounsaturated or OA-EE (placebo) control. […] Serum ARA levels were reduced to a lesser degree by DHA-S (24%, p<0.001), fish oil (37%, p<0.001) and DHA/EPA-EE (49%, p<0.001), as compared to the monounsaturated or OA-EE (placebo) control. Data shown represents 3 pooled animals per group. Means±SD. *p<0.05 ***p<0.001.

[3] = tested on: Collagen-Induced Arthritis (CIA); assay: CIA-EE (Example 1): paw, knee and six-joint histopathology; details: day 45, vs OA-EE placebo, FIG. 4
Excerpt: Male DBA/1O1aHsd mice (3.5-4 weeks of age) were randomized by weight and enrolled in the study after a three day quarantine in which animals were fed the AlN-93G diet with a modified base fat: 1 part flax seed oil (flax), 9 parts hydrogenated coconut oil (HCOC) and 21 parts high-oleic safflower oil (HO-SAFF). 15 animals were enrolled per study group, with the exception of the No Disease control that had 4 animals. Study groups consisted of:
as §1
Placebo-treated diseased animals had histopathology changes, consistent with those seen in type II collagen induced arthritis, in most joints, with scores ranging from normal to severe. Microscopic alteration included infiltration of synovium and periarticular tissue with neutrophils and mononuclear inflammatory cells (inflammation), marginal zone pannus and bone resorption and cartilage damage (proteoglycan loss, chondrocyte death and collagen matrix destruction). Four-paw, knee and joint parameters were assigned a quantitative score 0=normal, 1=minimal, 2=mild, 3=moderate, 4=marked, 5=severe and a total score was determined per animal.

CC/C=C\C/C=C\C/C=C\C/C=C\C/C=C\C/C=C\CCC(=O)OCC [DHA-EE]
serum ARA levels, decrease vs OA-EE (placebo) control ([1]; 2500 mg/kg): approximately 90%
serum ARA levels, decrease vs OA-EE (placebo) control ([1]; 5000 mg/kg): approximately 90%
serum ARA levels, reduction vs OA-EE (placebo) control ([2]; 1000 mg/kg): 77%
serum ARA levels, reduction vs monounsaturated or OA-EE (placebo) control ([2]; 2500 mg/kg PUFA): approximately 90%
serum EPA levels, elevation vs monounsaturated or OA-EE (placebo) control ([2]; 2500 mg/kg PUFA (DHA-EE dose not stated)): elevated
serum DHA levels, elevation vs OA-EE (placebo) control ([2]; dose not stated (1000 and 2500 mg/kg tested)): 3-5 fold
knee histopathology parameters ([3]; 2500 mg/kg): significantly reduced
paw histopathology parameters (inflammation, pannus, cartilage damage, bone damage) ([3]; 2500 mg/kg): significantly reduced
six-joint mean histopathology parameters ([3]; 2500 mg/kg): significantly reduced
paw histopathology parameters (inflammation, pannus, cartilage damage, bone damage) ([3]; 5000 mg/kg): reduced paw histopathology scores
six-joint mean histopathology parameters ([3]; 5000 mg/kg): significantly reduced
